Measurements reported in PMC6254361, “The properties of Msh2–Msh6 ATP binding mutants suggest a signal amplification mechanism in DNA mismatch repair” (The Journal of Biological Chemistry, 2018).

Target: T1, Msh2–Msh6 (Saccharomyces cerevisiae, UniProt P25847+Q03834, P25847:K694R)
T1 sequence (P25847 1-964 K694R): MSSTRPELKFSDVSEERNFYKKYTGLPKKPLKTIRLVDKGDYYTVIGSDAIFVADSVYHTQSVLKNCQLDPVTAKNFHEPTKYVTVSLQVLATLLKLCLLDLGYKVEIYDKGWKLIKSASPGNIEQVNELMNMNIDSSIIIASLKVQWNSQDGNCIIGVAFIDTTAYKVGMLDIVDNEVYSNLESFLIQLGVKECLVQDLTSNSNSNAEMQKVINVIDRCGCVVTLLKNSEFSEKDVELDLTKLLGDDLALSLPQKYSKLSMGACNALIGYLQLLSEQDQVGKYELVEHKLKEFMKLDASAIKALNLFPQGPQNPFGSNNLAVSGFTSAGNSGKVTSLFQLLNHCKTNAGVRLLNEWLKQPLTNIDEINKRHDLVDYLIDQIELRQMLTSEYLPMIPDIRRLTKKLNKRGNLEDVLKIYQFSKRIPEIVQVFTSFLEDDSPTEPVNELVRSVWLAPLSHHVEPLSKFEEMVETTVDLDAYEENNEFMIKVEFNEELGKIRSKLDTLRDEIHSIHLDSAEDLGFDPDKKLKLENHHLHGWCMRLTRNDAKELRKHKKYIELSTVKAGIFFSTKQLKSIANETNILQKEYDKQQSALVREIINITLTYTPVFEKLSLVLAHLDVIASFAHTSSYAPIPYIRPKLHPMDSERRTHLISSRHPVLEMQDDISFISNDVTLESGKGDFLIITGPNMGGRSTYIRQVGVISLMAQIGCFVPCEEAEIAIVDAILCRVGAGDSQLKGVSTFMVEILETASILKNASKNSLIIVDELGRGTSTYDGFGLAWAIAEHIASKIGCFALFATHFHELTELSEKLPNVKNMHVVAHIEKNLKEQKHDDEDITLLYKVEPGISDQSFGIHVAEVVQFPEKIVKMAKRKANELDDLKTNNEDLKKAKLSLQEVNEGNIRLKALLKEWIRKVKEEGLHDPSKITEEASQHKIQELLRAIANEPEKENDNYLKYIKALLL
T1 sequence (Q03834 1-1242): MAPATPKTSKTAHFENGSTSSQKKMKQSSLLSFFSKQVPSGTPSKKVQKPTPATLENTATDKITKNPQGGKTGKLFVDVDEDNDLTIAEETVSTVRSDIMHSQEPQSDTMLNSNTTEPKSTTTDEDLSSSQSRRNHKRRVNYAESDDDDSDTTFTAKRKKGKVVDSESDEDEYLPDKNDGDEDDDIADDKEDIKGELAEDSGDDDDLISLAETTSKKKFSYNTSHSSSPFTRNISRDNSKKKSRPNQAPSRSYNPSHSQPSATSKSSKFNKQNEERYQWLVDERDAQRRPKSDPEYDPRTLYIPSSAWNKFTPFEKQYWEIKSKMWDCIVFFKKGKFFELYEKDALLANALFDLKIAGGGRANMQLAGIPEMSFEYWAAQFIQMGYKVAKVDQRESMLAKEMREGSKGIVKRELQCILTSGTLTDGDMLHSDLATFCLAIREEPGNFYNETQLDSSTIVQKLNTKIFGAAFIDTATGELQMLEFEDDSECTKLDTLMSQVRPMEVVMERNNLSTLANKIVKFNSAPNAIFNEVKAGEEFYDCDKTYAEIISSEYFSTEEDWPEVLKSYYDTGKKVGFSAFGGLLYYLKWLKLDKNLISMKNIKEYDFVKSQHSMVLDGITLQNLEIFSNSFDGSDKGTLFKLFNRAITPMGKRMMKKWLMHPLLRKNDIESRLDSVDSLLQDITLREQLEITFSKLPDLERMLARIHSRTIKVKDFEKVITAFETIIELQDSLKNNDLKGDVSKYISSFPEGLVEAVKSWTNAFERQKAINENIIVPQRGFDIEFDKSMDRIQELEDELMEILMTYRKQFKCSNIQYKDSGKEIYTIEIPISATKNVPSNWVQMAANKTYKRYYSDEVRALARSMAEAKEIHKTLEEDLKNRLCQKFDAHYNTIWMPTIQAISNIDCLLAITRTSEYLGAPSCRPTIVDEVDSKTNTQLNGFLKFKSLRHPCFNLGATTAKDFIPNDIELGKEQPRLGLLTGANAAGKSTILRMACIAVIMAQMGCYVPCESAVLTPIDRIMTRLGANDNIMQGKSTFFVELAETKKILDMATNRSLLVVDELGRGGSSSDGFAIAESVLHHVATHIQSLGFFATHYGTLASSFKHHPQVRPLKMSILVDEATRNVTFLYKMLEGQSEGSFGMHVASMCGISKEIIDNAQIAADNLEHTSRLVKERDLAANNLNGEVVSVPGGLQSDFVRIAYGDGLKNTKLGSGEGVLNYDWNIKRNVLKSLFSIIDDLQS
Assay: UV cross-linking of [γ-32P]ATP, SDS-PAGE, phosphorimaging
Type: binding
Details: labelled compound; no Mg2+, EDTA, pH 8, on ice; Msh2 site at 60 μM ATP, Msh6 site at 1 μM ATP

**Q.** How did the “relative ATP binding” value turn out when Nc1ncnc2c1ncn2[C@@H]1O[C@H](COP(=O)(O)OP(=O)(O)OP(=O)(O)O)[C@@H](O)[C@H]1O [ATP] was run?
**A.** The value was “Msh2(K694A)–Msh6 and Msh2(K694R)–Msh6 mutant complexes were defective for ATP binding to both”.
